Assay [1] deals with T1, Recombinant human integrin αVβ3 (Homo sapiens, UniProt P05106+P06756).
T1 construct: purchased R&D Systems, Minneapolis, MN, USA
As to the kind of experiment: Inhibition of biotinylated vitronectin binding to purified αVβ3 receptor (solid phase receptor binding assay). The note with it: conjugates, Table 2; mean ± SD of triplicate determinations. The method, then:
Conjugates 7–11 were evaluated for their ability to inhibit biotinylated vitronectin binding to the purified αVβ3 receptor. Screening assays were performed by incubating the immobilized integrin receptor with solutions of the cyclo[DKP-RGD]-α-amanitin and cyclo[DKP-isoDGR]-α-amanitin conjugates 7–11 at different concentrations (10^−12 to 10^−5 M) in the presence of biotinylated vitronectin (1 µg mL^−1) and measuring bound vitronectin. […]
to assist the dissolution). The solution obtained was filtered (polypropylene, 0.45 μm, 13 mm ø, PK/100) and injected in the HPLC, affording purified products. Purity analyses were carried on a Dionex Ultimate 3000 instrument equipped with a Dionex RS Variable Wavelenght detector (column: Atlantis® Prep T3 OBDTM 5 μm 19 × 100 mm). The analyte (1 mg) was dissolved in 1 mL of H2O and was injected using the same gradient used in the purification step. The analysis of the integrals and the relative percentage of purity were performed with the software Chromeleon 6.80 SR11 Build 3161. Also, preparative HPLC LaPrep∑ equipped with autosampler AS3950 and a Phenomenex Luna C-18(2) column, 10 µm, 250 × 21.2 mm, with precolumn at 30 mL/min flow rate and analytical HPLC performed on Hitachi Chromaster (column oven Chromaster 5310, pump Chromaster 5110, autosampler Chromaster 5210, DAD Chromaster 5430) equipped with a Phenomenex Luna C-18(2) column, 10 µm, 250 × 4.6 mm, with precolumn at 1.4 mL/min flow rate were used. Freeze-drying: The product was dissolved in water and frozen with dry ice. The freeze-drying was carried out at least for 48 h at −50 °C using the instrument 5Pascal Lio5P DGT.
Solid phase receptor binding assays
Recombinant human integrin αVβ3 (R&D Systems, Minneapolis, MN, USA) was diluted to 0.5 µg/mL in coating buffer containing 20 mM Tris-HCl (pH 7.4), 150 mM NaCl, 1 mM MnCl2, 2 mM CaCl2, and 1 mM MgCl2. […] Absorbance at 415 nm was read in a SynergyTM HT Multi-Detection Microplate Reader (BioTek Instruments, Inc.). […]

The test system of assay [2] is U87 cells (human glioblastoma, αVβ3+). As to the kind of experiment: cells. Format: cell-based. The note with it: for IC50: 96 hours treatment, triplicate, read-out: IC50 U87 (αVβ3+), inhibition of cell viability. The method, then:
(§1) The cell lines were treated with different concentrations of the free drug α-amanitin and conjugates 7–11 for 96 hours. […]
(§2) described recently.[S1] The SNP profiles matched known profiles or were unique. The purity of the cell lines was validated using the Multiplex cell Contamination Test by Multiplexion (Heidelberg, Germany) as described recently.[S2] No mycoplasma, SMRV or interspecies contamination was detected. U87-MG, MDA-MB 468 and A549 cells were cultivated continuously for not more than 3 months in MEM Eagle´s, DMEM or Ham´s F12 medium, respectively, supplemented with 10% heat inactivated fetus calf serum, L-glutamine and antibiotics. Cell lines were maintained at 37 °C and 5% CO2 in a high humidity atmosphere.
(§3) Cell therapy and viability assay
(§4) Cell viability assays were performed in U87-MG, A549 and MDA-MB 468 cell lines according to the following procedure: 2 × 10^3 cells/well were plated in 96-well black clear bottom plates (Perkin Elmer) and incubated overnight. 1:5 serial dilutions of compounds 7–11 were prepared in cell culture media. The compounds were added to the cell culture and incubated for additional 96 h. Starting concentration of compounds 7–11 in the wells was 1 × 10−5 M and cell viability was determined with the CellTiterGlo 2.0 assay (Promega) in accordance to manufacturer’s instructions. The cell viability was calculated in relation to the non-treated controls for each cell line. All samples were measured in triplicate. Data analysis was carried out using software GraphPad Prism (GraphPad Software Inc., La Jolla, CA, USA).
Competition experiment of compounds 10 and 11
The competition experiment s were performed in U87-MG and MDA-MB 468 cell lines according to the following procedure: 2 × 10^3 cells/well were plated in 96-well black clear bottom plates (Perkin Elmer) and incubated overnight. A solution containing 1 × 10−4 M of the conjugates 10 or 11 and 5 × 10−3 M of cilengitide (50-fold excess of ligand in comparison to the conjugate) was prepared in the growth medium and 1:5 serial dilutions were prepared in cell culture media. The compounds were added to cell culture and incubated for 96 h. The starting concentration of the compounds in the wells was 0.01 mM whereas that of cilengitide was 0.5 mM. The cell viability was determined with the CellTiterGlo 2.0 assay (Promega) in accordance to manufacturer’s instructions and the viability was calculated in relation to the non-treated controls for each cell line. All samples were measured in triplicate. Data analysis was carried out using software GraphPad Prism (GraphPad Software Inc., La Jolla, CA, USA).
(§5) [S1] F. Castro, W. G. Dirks, S. Fähnrich, A. Hotz-Wagenblatt, M. Pawlita, M. Schmitt, Int. J. Cancer […]
(§6) [S2] M. Schmitt, M. Pawlita, Nucleic Acids Res. 2009, 37, e119.

Assay [3] relates to MDA-MB-468 cells (breast adenocarcinoma, αVβ3−). As to the kind of experiment: cells. The assay is classed as cell-based. The note with it: 96 hours treatment, triplicate, read-out: IC50 MDA-MB-468 (αVβ3−), inhibition of cell viability. The method, then: as §1, §2, §3
as §4, with “USA). […]” for “USA).”
as §5, §6

Assay [4] has as its system A549 cells (human lung carcinoma, αVβ3−). In words: cells. The assay is classed as cell-based. The procedure:
as §1, §2, §3
as §4, with “USA). […]” for “USA).”

Assay [5] concerns αVβ3 positive and αVβ3 negative cell line. More on the design: method as in PMID 28449309. The note with it: αVβ3 positive vs αVβ3 negative cell line; cited from earlier work.
Assay [6] has as its system αVβ5 receptor. As to the kind of experiment: Inhibition of biotinylated vitronectin binding to αVβ5 receptor. The conditions noted are these: ratio of IC50 values of Table 1.
For assay [7], the target named is αVβ5 receptor. More on the design: method as in PMID 22517378, PMID 23424096. The conditions noted are these: free ligands, Table 1; mean ± SD of triplicate determinations; read-out: IC50 αVβ5, inhibition of biotinylated vitronectin binding; cited from earlier work.
For another assay, the system named is αVβ3. More on the design: method as in PMID 28074920. The note with it: read-out: IC50 αVβ3 binding; cited from earlier work.
Another assay relates to αVβ5. The arrangement: method as in PMID 28074920. The conditions noted are these: read-out: IC50 αVβ5 binding; cited from earlier work.
The next assay concerns α5β1. More on the design: method as in PMID 28074920. The note with it: read-out: IC50 α5β1 binding; cited from earlier work.

In general, IC50 refers to the concentration that inhibits the measured activity by half.

Where two headings read alike, the source gives them in different places.

T1 sequence (P06756 31-992 limits assumed): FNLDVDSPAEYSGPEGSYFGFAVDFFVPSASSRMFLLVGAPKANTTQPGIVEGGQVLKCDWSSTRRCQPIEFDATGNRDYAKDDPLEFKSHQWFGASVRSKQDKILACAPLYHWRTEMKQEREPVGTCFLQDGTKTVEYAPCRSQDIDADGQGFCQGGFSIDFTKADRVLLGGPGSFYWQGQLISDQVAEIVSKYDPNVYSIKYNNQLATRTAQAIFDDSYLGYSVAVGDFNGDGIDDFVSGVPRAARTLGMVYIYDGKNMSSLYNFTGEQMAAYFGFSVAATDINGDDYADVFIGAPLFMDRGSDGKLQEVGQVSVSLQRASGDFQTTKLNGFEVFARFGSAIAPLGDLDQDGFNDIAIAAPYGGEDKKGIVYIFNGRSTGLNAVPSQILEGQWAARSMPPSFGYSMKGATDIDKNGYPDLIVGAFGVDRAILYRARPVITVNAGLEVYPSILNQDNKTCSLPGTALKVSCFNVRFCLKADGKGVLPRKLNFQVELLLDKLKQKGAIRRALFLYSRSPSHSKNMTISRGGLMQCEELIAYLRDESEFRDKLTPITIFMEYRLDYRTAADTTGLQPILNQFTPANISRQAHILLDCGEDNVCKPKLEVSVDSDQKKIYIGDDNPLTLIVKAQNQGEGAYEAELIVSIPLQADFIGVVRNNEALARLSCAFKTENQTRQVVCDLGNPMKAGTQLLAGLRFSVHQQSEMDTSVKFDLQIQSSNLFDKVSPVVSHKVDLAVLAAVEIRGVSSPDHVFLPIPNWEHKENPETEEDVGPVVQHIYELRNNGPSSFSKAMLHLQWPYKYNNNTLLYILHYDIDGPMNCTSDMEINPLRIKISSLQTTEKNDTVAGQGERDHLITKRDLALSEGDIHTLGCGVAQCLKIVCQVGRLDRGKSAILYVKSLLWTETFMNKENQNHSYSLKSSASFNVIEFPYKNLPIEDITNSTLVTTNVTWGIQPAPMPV
T1 sequence (P05106 27-718 limits assumed): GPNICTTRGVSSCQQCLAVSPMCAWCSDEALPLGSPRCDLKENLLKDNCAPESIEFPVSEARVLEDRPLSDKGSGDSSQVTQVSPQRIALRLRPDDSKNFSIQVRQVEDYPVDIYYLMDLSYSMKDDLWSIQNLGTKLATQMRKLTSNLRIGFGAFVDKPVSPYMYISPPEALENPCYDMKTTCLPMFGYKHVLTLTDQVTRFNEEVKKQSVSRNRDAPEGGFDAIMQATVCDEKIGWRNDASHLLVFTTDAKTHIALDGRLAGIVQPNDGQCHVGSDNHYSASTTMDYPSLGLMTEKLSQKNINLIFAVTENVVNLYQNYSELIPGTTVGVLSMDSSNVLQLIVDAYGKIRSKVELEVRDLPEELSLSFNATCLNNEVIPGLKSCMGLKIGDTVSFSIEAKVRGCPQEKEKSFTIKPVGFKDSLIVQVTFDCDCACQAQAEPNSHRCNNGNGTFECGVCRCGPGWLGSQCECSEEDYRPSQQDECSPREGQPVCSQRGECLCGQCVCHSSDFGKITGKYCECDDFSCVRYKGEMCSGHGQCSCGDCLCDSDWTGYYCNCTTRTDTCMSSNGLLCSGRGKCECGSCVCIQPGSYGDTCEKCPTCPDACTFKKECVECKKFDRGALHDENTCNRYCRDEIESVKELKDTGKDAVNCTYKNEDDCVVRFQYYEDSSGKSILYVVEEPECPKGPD

With `CC[C@H](C)[C@@H]1NC(=O)CNC(=O)[C@@H]2Cc3c([nH]c4cc(OCCCCCCNC(=O)CCCC(=O)NCc5ccc(CN6C(=O)[C@H]7CC(=O)N[C@@H](CCCNC(=N)N)C(=O)NCC(=O)N[C@@H](CC(=O)O)C(=O)NC[C@H]6C(=O)N7)cc5)ccc34)[S+]([O-])C[C@H](NC(=O)CNC1=O)C(=O)N[C@@H](CC(N)=O)C(=O)N1C[C@H](O)C[C@H]1C(=O)N[C@@H]([C@@H](C)[C@@H](O)CO)C(=O)N2` (stereo partly drawn) [Compound 7, cyclo[DKP-RGD]-uncleavable-α-amanitin], the concentration for half-maximal inhibition (IC50) in [1] amounted to 11.6 ± 2.4 nM; in [2], 2550 ± 37.6 nM; in assay [3], 1110 ± 228 nM.
In the case of `CC[C@H](C)[C@@H]1NC(=O)CNC(=O)[C@@H]2Cc3c([nH]c4cc(OCCCCCCNC(=O)CCCC(=O)NCc5ccc(CN6C(=O)[C@H]7CC(=O)N[C@H](C(=O)O)CC(=O)NCC(=O)N[C@@H](CCCNC(=N)N)C(=O)NC[C@H]6C(=O)N7)cc5)ccc34)[S+]([O-])C[C@H](NC(=O)CNC1=O)C(=O)N[C@@H](CC(N)=O)C(=O)N1C[C@H](O)C[C@H]1C(=O)N[C@@H]([C@@H](C)[C@@H](O)CO)C(=O)N2` (stereo partly drawn) [Compound 8, cyclo[DKP-isoDGR]-uncleavable-α-amanitin], the IC50 in assay [1] came to 6.8 ± 4.3 nM; in [2], 3355 ± 19.1 nM; in assay [3], 2200 ± 96.2 nM.
As to `CC[C@H](C)[C@@H]1NC(=O)CNC(=O)[C@@H]2Cc3c([nH]c4cc(OCc5ccc(NC(=O)[C@H](C)NC(=O)[C@@H](NC(=O)CCc6cn(CCOCCOCCOCCOCC(=O)NCc7ccc(CN8C(=O)[C@H]9CC(=O)N[C@H](C(=O)O)CC(=O)NCC(=O)N[C@@H](CCCNC(=N)N)C(=O)NC[C@H]8C(=O)N9)cc7)nn6)C(C)C)cc5)ccc34)[S+]([O-])C[C@H](NC(=O)CNC1=O)C(=O)N[C@@H](CC(N)=O)C(=O)N1C[C@H](O)C[C@H]1C(=O)N[C@@H]([C@@H](C)[C@@H](O)CO)C(=O)N2` (stereo partly drawn) [Compound 11, cyclo[DKP-isoDGR]-PEG-4-Val-Ala-α-amanitin], in assay [2] (in U87 and MDA-MB-468 cell lines, Table 3 entry 1 vs entry 6), the “more potent than α-amanitin” value is on record as 2.1–2.8 times. For the same compound, the “less potent than the free drug (α-amanitin)” value in assay [4] (A549 cell line) amounted to 1.4 times.
On to `CC(=O)O[C@H]1C(=O)[C@@]2(C)[C@H]([C@H](OC(=O)c3ccccc3)[C@]3(O)C[C@H](OC(=O)[C@H](OC(=O)N(C)CCN(C)C(=O)OCc4ccc(NC(=O)[C@H](C)NC(=O)[C@@H](NC(=O)CCCC(=O)NCc5ccc(CN6C(=O)[C@H]7CC(=O)N[C@@H](CCCNC(=N)N)C(=O)NCC(=O)N[C@@H](CC(=O)O)C(=O)NC[C@H]6C(=O)N7)cc5)C(C)C)cc4)[C@@H](NC(=O)c4ccccc4)c4ccccc4)C(C)=C1C3(C)C)[C@]1(OC(C)=O)CO[C@@H]1C[C@@H]2O` [Conjugate 5, cyclo[DKP-RGD]-Val-Ala-PTX], for which the “targeting index (TI)” value in assay [5] was 2.4.
For `CC(=O)O[C@H]1C(=O)[C@@]2(C)[C@H]([C@H](OC(=O)c3ccccc3)[C@]3(O)C[C@H](OC(=O)[C@H](OC(=O)N(C)CCN(C)C(=O)OCc4ccc(NC(=O)[C@H](C)NC(=O)[C@@H](NC(=O)CCCC(=O)NCc5ccc(CN6C(=O)[C@H]7CC(=O)N[C@H](C(=O)O)CC(=O)NCC(=O)N[C@@H](CCCNC(=N)N)C(=O)NC[C@H]6C(=O)N7)cc5)C(C)C)cc4)[C@@H](NC(=O)c4ccccc4)c4ccccc4)C(C)=C1C3(C)C)[C@]1(OC(C)=O)CO[C@@H]1C[C@@H]2O` [Conjugate 6, cyclo[DKP-isoDGR]-Val-Ala-PTX], the “targeting index (TI)” value in assay [5] is 9.9.
`N=C(N)NCCC[C@@H]1NC(=O)C[C@H]2NC(=O)[C@H](CNC(=O)[C@H](CC(=O)O)NC(=O)CNC1=O)N(Cc1ccccc1)C2=O` [Ligand 1, cyclo[DKP-RGD]]: the “selectivity for αVβ3 in comparison with integrin αVβ5” value in the assay with αVβ5 receptor [6] is reported as 33–34 times. For the same compound, the IC50 on αVβ5 receptor [7] is 149 ± 25 nM.
`CC[C@H](C)[C@@H]1NC(=O)CNC(=O)[C@@H]2Cc3c([nH]c4cc(O)ccc34)[S@+]([O-])C[C@H](NC(=O)CNC1=O)C(=O)N[C@@H](CC(N)=O)C(=O)N1C[C@H](O)C[C@H]1C(=O)N[C@@H]([C@@H](C)[C@@H](O)CO)C(=O)N2` [α-amanitin]: the half-maximal inhibitory concentration (IC50) in assay [2] (Homo sapiens, U-87 MG) is 347 ± 132 nM; in assay [3] (Homo sapiens, MDA-MB-468), 185 ± 49.6 nM; in assay [4] (Homo sapiens, A549, 96 hours treatment, triplicate, read-out: IC50 A549 (αVβ3−), inhibition of cell viability), 518 ± 305 nM.
On to cilengitide, for which the IC50 with αVβ3 is 0.6 nM; with αVβ5 it was 8.4 nM; in the assay with α5β1, 14.9 nM.

(Values after article PMC5827777, “Synthesis and biological evaluation of RGD and isoDGR peptidomimetic-α-amanitin conjugates for tumor-targeting” (Beilstein Journal of Organic Chemistry, 2018).)
